The target in this data set is T1, MRP4 (Homo sapiens, UniProt O15439).
T1 sequence (O15439 1-1325): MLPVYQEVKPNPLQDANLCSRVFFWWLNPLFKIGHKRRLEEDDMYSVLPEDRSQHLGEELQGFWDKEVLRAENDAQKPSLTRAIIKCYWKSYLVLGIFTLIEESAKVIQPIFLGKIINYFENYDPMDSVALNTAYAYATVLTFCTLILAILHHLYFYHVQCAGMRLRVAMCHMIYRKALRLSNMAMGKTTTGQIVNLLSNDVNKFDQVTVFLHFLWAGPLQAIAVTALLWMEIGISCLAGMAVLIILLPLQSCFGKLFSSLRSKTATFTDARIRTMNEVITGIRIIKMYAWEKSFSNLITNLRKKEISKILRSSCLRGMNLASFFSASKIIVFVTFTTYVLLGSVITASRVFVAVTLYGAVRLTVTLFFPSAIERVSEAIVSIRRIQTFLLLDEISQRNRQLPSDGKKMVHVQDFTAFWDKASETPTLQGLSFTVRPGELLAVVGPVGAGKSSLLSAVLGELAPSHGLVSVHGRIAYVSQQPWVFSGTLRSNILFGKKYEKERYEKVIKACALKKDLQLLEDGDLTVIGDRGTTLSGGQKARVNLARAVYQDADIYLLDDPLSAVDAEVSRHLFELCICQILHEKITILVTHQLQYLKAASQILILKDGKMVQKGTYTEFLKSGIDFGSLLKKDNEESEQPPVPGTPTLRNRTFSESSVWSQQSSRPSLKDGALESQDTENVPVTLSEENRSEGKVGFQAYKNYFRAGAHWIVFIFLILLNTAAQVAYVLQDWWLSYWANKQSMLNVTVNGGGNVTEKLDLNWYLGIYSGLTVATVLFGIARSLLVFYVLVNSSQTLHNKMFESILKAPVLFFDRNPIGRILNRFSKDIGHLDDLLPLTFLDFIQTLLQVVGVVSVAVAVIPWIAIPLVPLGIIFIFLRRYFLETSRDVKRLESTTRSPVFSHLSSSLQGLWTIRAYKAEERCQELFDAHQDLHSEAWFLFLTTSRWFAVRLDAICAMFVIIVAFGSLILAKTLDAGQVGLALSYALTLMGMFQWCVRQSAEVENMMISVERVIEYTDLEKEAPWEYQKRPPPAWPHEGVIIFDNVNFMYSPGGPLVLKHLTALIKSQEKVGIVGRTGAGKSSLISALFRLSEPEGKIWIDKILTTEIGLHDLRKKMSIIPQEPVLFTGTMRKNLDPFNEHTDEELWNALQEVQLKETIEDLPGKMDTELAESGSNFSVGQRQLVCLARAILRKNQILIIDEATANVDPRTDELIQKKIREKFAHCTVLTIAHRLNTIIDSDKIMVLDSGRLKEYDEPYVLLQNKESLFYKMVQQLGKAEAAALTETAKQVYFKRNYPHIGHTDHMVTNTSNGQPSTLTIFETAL
In words: Membrane vesicle transport inhibition assay: MRP4-mediated [3H]-MTX uptake. The conditions noted are these: for Mode of inhibition of MRP4-mediated transport: Dixon plot, three [3H]-MTX concentrations; for IC20 at 10 min: human; for Effect on transport mediated by MRP4 / Decrease of MRP4-mediated transport compared to control: [3H]-MTX uptake; for Effect on transport mediated by MRP4: result in words; for Decrease of MRP4-mediated transport compared to control: toxin 1 mM. The procedure:
Human embryonic kidney (HEK293; purchased at American Type Culture Collection, Manassas, VA) cells were cultured in Dulbecco's modified Eagle's medium (Invitrogen life sciences, Breda, the Netherlands) containing 10% (v/v) fetal calf serum (MP Biomedicals, Uden, the Netherlands) at 37°C in a 5% (v/v) CO2 atmosphere. To functionally overexpress MRP4 and BCRP, HEK293 cells were transduced with baculoviruses of human MRP4, BCRP or enhanced yellow fluorescent protein (EYFP), generated via the Bac-to-Bac system (Invitrogen) as previously described. To transduce HEK293 cells, they were cultured in 500 cm^2 flasks until 70% confluence. Subsequently, medium was removed and 10 ml of virus and 25 ml of medium were added and incubated for 30 min at 37°C. Next, 50 ml of medium was added and after 2 h of transduction 5 mM sodium butyrate was added.
Three days after transduction, cells were harvested and pelleted by centrifugation (30 min at 4,000 x g). Afterwards, the cells were resuspended in ice-cold hypotonic TS buffer (0.5 mM sodium phosphate, 0.1 mM EDTA, pH 7.0) containing protease inhibitors (100 µM phenylmethylsulfonyl fluoride, 5 µg/ml aprotinin, 5 µg/ml leupeptin, 1 µg/ml pepstatin and 1 µg/ml E-64) and shaken for 30 min at 4°C. Cells were then centrifuged at 100,000 x g for 30 min at 4°C. […] Afterwards, supernatant was centrifuged at 100,000 x g for 1 h at 4°C. […] The protein content of samples was determined using the Bio-Rad protein assay (Veenendaal, the Netherlands), according to manufacturers recommendations. Vesicles were frozen in liquid nitrogen and stored at −80°C until use. The orientation of the membrane vesicles was not determined, since ATP-dependent uptake occurs only in inside-out vesicles.
A rapid filtration technique was used to study the uptake of [^3H]-MTX and [^3H]-E1S into MRP4 or BCRP membrane vesicles, as previously described. In short, 25 µl of TS buffer containing 4 mM ATP, 10 mM MgCl2 and radiolabeled substrate was added to 5 µl of the membrane vesicles (1.5 mg/ml). The transport assay was performed in the absence or presence of various concentrations of uremic toxins to evaluate the inhibitory effects of these compounds on MRP4-mediated [^3H]-MTX uptake and BCRP-mediated [^3H]-E1S uptake. […] Uptake was stopped by placing the samples on ice and the addition of 150 µl ice cold TS buffer. Subsequently, the samples were transferred to a 96 well filter plate (Millipore, Etten-leur, the Netherlands) pre-incubated with TS buffer and filtered using a Multiscreen HTS-Vacuum Manifold filtration device (Millipore). Afterwards, 2 ml of scintillation liquid was added to each filter and radioactivity was determined using liquid scintillation counting. As negative controls ATP was substituted for AMP and EYFP-membrane vesicles were used. Each experiment was performed in triplicates.
Differences between groups were considered to be statistically significant when p<0.05. The mean IC50 and IC20 values were calculated from the inhibition curves used for the Dixon analysis and to determine the inhibition constant (Ki) from the Dixon plots. Transport inhibition studies were performed in triplicate and repeated at least three times.

[1] abbreviates: IC50 (concentration inhibiting 50% of transport by MRP4), MRP4-mediated [3H]-MTX uptake.
The mark [2] stands for this setting: IC50, [3H]-MTX uptake into MRP4 membrane vesicles, 10 min, 37°C, mean ± SEM of three experiments.
[3] abbreviates: membrane vesicles from HEK293 cells overexpressing MRP4, pH 7, probe [3H]-methotrexate ([3H]-MTX).

Structures can show the parent of a compound that is named as a salt. Where two headings read alike, the source gives them in different places.

One may read the Ki as a measure of affinity in units of concentration, obtained from inhibition or displacement. For orientation: IC50 means the concentration that inhibits the measured activity by half. A high value points to weaker potency in that assay. By IC20 is commonly meant the concentration needed for an effect of 20%. A lower IC20 goes with an effect from little substance.

In the case of `O=C(O)CNC(=O)c1ccccc1` [hippuric acid], the Ki came to 2.5 ± 0.05 mM and the “Mode of inhibition of MRP4-mediated transport” value was “non-competitive”. Under setting [1], the IC50 came out at 2.5 mM. Under setting [2], this compound returned an IC50 of 0.99 ± 0.18 mM. Under setting [3], this compound displayed an IC20 at 10 min of 350 ± 20 µM.

`O=C(O)Cc1c[nH]c2ccccc12` [indole-3-acetic acid]: the inhibition constant (Ki) came to 2 ± 0.07 mM and the “Mode of inhibition of MRP4-mediated transport” value is reported as “non-competitive”. Besides, the IC50 under setting [2] is 1.795 ± 0.008 mM. The 20% effect level under setting [3] (IC20 at 10 min) was put at 570 ± 30 µM.

Consider `O=S(=O)(O)Oc1c[nH]c2ccccc12` [indoxyl sulfate], for which the IC50 turned out to be 1.75 ± 0.11 mM, the Ki was found to be 1 ± 0.09 mM and the “Mode of inhibition of MRP4-mediated transport” value is given as “non-competitive”. The compound further had an IC20 at 10 min under setting [3] of 530 ± 70 µM.

In the case of `O=C(O)c1cc(=O)c2ccccc2[nH]1` [kynurenic acid], the concentration for half-maximal inhibition (IC50) was determined as 0.008 ± 0.001 mM and the Ki was 0.025 ± 0.002 mM. Moreover, it took 1.5 ± 0.3 µM to reach the 20% level under setting [3] (IC20 at 10 min).

Consider `O=C(O)C(=O)O` [oxalate], for which the “Effect on transport mediated by MRP4” value is reported as “did not alter transport” and the “Decrease of MRP4-mediated transport compared to control” value (shortened to “Decrease of MRP4-mediated transport”) is no more than 10%.

In the case of `Cc1ccc(O)cc1` [p-cresol], the “Effect on transport mediated by MRP4” value is reported as “did not alter transport” and the “Decrease of MRP4-mediated transport” value is given as no more than 10%.

`Cc1ccc(S(=O)(=O)O)cc1` [p-toluenesulfonic acid, reference compound]: the “Effect on transport mediated by MRP4” value was “did not alter transport” and the “Decrease of MRP4-mediated transport” value is reported as no more than 10%.

As for `O=C(O)Cc1ccccc1` [phenylacetic acid], the IC50 by setting is: under setting [1], 7 mM; under setting [2], 7.1 ± 1.6 mM. This compound showed an IC20 at 10 min (pH 7) of 1600 ± 170 µM.

For the compound `NCCCCN` [putrescine], the “Effect on transport mediated by MRP4” value was “did not alter transport” and the “Decrease of MRP4-mediated transport” value is given as no more than 10%.

For the compound `O=C(O)c1cccnc1C(=O)O` [quinolinic acid], the “Effect on transport mediated by MRP4” value is listed as “did not alter transport” and the “Decrease of MRP4-mediated transport” value is no more than 10%.
